{"source": "patent US20130331738A1", "about": "“COMPOSITIONS AND METHODS FOR POTENTIATING SONOTHROMBOLYSIS” (Board of Trustees University of Arkansas, priority 2012, published 2013)", "tested_on": "rabbit blood clots", "experiment": "In vitro sonothrombolysis of rabbit blood clots in a Mylar flow chamber infused with serum", "conditions": "CPDL 0.001% w/V added to the MB suspension, complete absence of tPA", "experimental": "To assess the combined effect of ultrasound in combination with tPA, a tissue permeabilizer, and microbubbles (MBs) on the efficacy of sonothrombolysis, the following experiment was conducted. Sonothrombolysis was performed on rabbit blood clots situated in a Mylar flow chamber (37.0° C.) infused with serum. In addition, tPA was introduced into the flow chamber at several initial concentrations ranging from 0.0 mg/mL to 0.2 mg/mL. At each tPA concentration, the ultrasound delivery parameters were adjusted to maximize the efficacy of sonothrombolysis of the clots. The efficacy of sonothrombolysis was assessed by determining the % clot mass loss per minute within the flow chamber. The ultrasound delivery parameters that were adjusted in this experiment included pulsed ultrasound intensity (0.1-2.0 W/cm2), ultrasound frequency (0.7-4 MHz), and duty factor (0.05-100%).\nOnce the ultrasound delivery parameters were established for each tPA concentration, uniformly-sized MBs having diameters ranging from about […] were then added to the flow chamber; the concentration and elasticity of the MBs were adjusted while reducing tPA in order to maintain the initial % clot mass loss per minute. […]"}
{"smiles": "O=C1CCCCCCCCCCCCCCO1", "note": "[CPDL, cyclopentadecanolide]", "values": [{"measurement": "increase of efficacy of sonothrombolysis (% clot mass loss per minute)", "result": "six-fold"}]}
